Values quoted from earlier work as cited in US20220296511A1, “COMPOSITIONS FOR DELIVERY OF DRUG COMBINATIONS TO TREAT LUNG DISEASE” (BOARD OF REGENTS, THE UNIVERSITY OF TEXAS SYSTEM, priority 2021, published 2022).
Read-outs that look alike come from different tables or passages of the source.

How the values were obtained:
[1] = 150 mg oral dose
[2] = phase 3 trial
[3] = not given; remark: listed apart in the source
[4] = not given; remark: listed apart in the source
[5] = rats, 50 mg/mL MFF suspension for nebulization

## COC(=O)c1ccc2c(c1)NC(=O)/C2=C(\Nc1ccc(N(C)C(=O)CN2CCN(C)CC2)cc1)c1ccccc1 [nintedanib]
[1]
  half-life: 9.49 h
  plasma concentration: 0.12 ng/mL/mg
[2]; most common adverse reaction
  diarrhea reported: 66.9%
[2]; nintedanib group
  reduction of FVC: −80.0 mL per year

## Cc1ccc(=O)n(-c2ccccc2)c1 [pirfenidone]
801 mg oral dose
  plasma concentration: 5000 ng/mL
801 mg oral dose, worked out from plasma concentration
  lung concentration: 0.7 µg/g
IV dose 40 mg/kg
  lung tissue concentration as percentage of plasma concentration: nine
oral
  pirfenidone decreased by food: 50%
[3]; 100 mg aerosol pirfenidone
  aerosol epithelial lining fluid (ELF) concentration relative to 801 mg oral: 35 times
[3]; 100 mg inhalation dose
  systemic exposure less than the oral delivery: 15 fold

## COc1c(C)c2c(c(O)c1C/C=C(\C)CCC(=O)O)C(=O)OC2 [mycophenolic acid]
[4]; in vivo
  therapeutic range: 1.0 to 3.5 µg/mL
[4]; oral
  maximum plasma concentration decreased by food: 40%
[5]
  lung concentration of mycophenolic acid as % of serum concentration: ~30%
